Earlier results on one compound are cited in US20030013767A1, “Method of treating weight loss using creatine” (priority 2001, published 2003).

Molecules are shown by their SMILES.

In one data set the test system is gyrate atrophy. The conditions noted are these: gyrate atrophy patients.
The test system of data set [1] is severe deficiency of creatine in brain. The settings on record: oral, ten to twelve months.
Data set [2] has as its system animal models of neurologic diseases, such as amyotrophic lateral sclerosis.

For the compound `CN(CC(=O)O)C(=N)N` [creatine], in the data set with gyrate atrophy, the “effect on periocular muscles” value is on record as “slight strengthening of the periocular muscles” and the “effect on the atrophy” value was “no effect on the atrophy”. Also, the toxicity result in data set [1] (4 grams/day (305-370 mg/kg/day) to 8 grams/day (600-740 mg/kg/day)) was “no report of toxicity”. Moreover, in data set [1] (4 grams/day to 8 grams/day), the treatment outcome is on record as “some success”. The therapeutic outcome in data set [2] is reported as “without success”.
